System: M17-TAU P301L cells
Experiment: Tau-induced toxicity experiment: LDH leakage of retinoic acid incubated M17-TAU P301L cells
Type: cell-based
Details: Homo sapiens, Neuroblastoma cell, 168 h; reduction of LDH activity of retinoic acid incubated M17-TAU P301L neuroblastoma cells, 7 days
Source text: A TAU expression plasmid was constructed by sub-cloning the cDNA of human TAU-P301L (encoding for TAU with proline 301 substituted by a leucine residue) into mammalian expression vector pcDNA3.1 resulting in plasmid pcDNA3.1-TAU P301L. Plasmids pcDNA3.1 and pcDNA3.1-TAU P301L were transfected to human neuroblastoma cells ([…]; ATCC No. CRL-2267) and independent clonal lines with the plasmids stably integrated into the genome were selected. […] Expression of the TAU P301L genes in the cell lines was confirmed by Western analysis.
In degenerated or dead cells lactate dehydrogenase (LDH) is leaked out of the cells into the extracellular environment due to a loss of plasma-membrane integrity. This principle was used to determine cytotoxicity by quantifying the level of leaked LDH into the growth medium.
The detailed method for determining TAU cytotoxicity was as follows: From appropriate precultures of M17-3.1 and M17-TAU(P301L) cells were seeded at 2500 cells/cm2 in Optimem Reduced Serum without phenol red (Gibco, Cat. 31985-047) supplemented with 1% fetal calf serum, 1 mM sodium pyruvate, 1× non-essential amino acids, 500 μg/ml G418 0.5× antibiotic/antimycotic. After 3 h of incubation at 37° C./5% CO2 1 volume of Optimem Reduced Serum (same as described above; except without fetal calf serum) supplemented with 2.5 μM retinoic acid (RA) was added. The cells were further incubated for 7 days. Subsequently, LDH activity was determined using Promega Cytotox 96 Non-Radioactive cytotoxicity assay, (Cat. G1780) according the supplier's instructions.
The M17-TAU P301L cell line made it possible to assess the ability of novel compounds to counteract TAU cytotoxicity. […] These measurements were used to calculate EC50 values of table 2.

Row | SMILES | EC50 [µM]
1 | O=C(NCCc1c[nH]c2ccc(Cl)cc12)c1ccc(Cc2cccnc2)cc1 [Cpd085, N-(2-(5-chloro-1H-indol-3-yl)ethyl)-4-(pyridin-3-ylmethyl)benzamide] | 0.117
2 | CN(c1ccccc1)c1ccc(C(=O)NCCc2c[nH]c3ccc(Cl)cc23)cc1 [Cpd096, N-(2-(5-chloro-1H-indol-3-yl)ethyl)-4-(methyl(phenyl)amino)benzamide] | 0.47
3 | O=C(NCCc1c[nH]c2ccc(Cl)cc12)c1cccc(Cc2cncc(F)c2)c1 [Cpd069, N-(2-(5-chloro-1H-indol-3-yl)ethyl)-3-((5-fluoropyridin-3-yl)methyl)benzamide] | 0.09
4 | O=C(NCCc1c[nH]c2ccc(Cl)cc12)c1cccc(Cc2cc(F)cc(F)c2)c1 [Cpd065, N-(2-(5-chloro-1H-indol-3-yl)ethyl)-3-(3,5-difluorobenzyl)benzamide] | 0.174
5 | CN(c1ccc(C(=O)NCCc2c[nH]c3ccc(Cl)cc23)cc1)c1cccc(F)c1 [Cpd104, N-(2-(5-chloro-1H-indol-3-yl)ethyl)-4-((3-fluorophenyl)(methyl)amino)benzamide] | 0.264
6 | COc1cccc(Cc2cccc(C(=O)NCCc3c[nH]c4ccc(Cl)cc34)c2)c1F [Cpd066, N-(2-(5-chloro-1H-indol-3-yl)ethyl)-3-(2-fluoro-3-methoxybenzyl)benzamide] | 0.386
7 | O=C(NCCc1c[nH]c2ccc(Cl)cc12)c1cccc(Cc2cccc(F)c2)c1 [Cpd053, N-(2-(5-chloro-1H-indol-3-yl)ethyl)-3-(3-fluorobenzyl)benzamide] | 0.017
8 | N#Cc1cccc(Cc2cccc(C(=O)NCCc3c[nH]c4ccc(Cl)cc34)c2)c1 [Cpd038, N-(2-(5-chloro-1H-indol-3-yl)ethyl)-3-(3-cyanobenzyl)benzamide] | 0.031
9 | O=C(NCCc1c[nH]c2ccc(Cl)cc12)c1ccc(Nc2ccccc2)cc1 [Cpd092, N-(2-(5-chloro-1H-indol-3-yl)ethyl)-4-(phenylamino)benzamide] | 0.076
10 | O=C(NCc1c[nH]c2ccc(Cl)cc12)c1ccc(Cc2cc(F)cc(F)c2)cc1 [Cpd073, N-((5-chloro-1H-indol-3-yl)methyl)-4-(3,5-difluorobenzyl)benzamide] | 0.242
11 | COc1cccc(Oc2cccc(C(=O)NCCc3c[nH]c4ccc(Cl)cc34)c2)c1 [Cpd089, N-(2-(5-chloro-1H-indol-3-yl)ethyl)-3-(3-methoxyphenoxy)benzamide] | 0.098
12 | Cc1cccc(Cc2cccc(C(=O)NCCc3c[nH]c4ccc(Cl)cc34)c2)c1 [Cpd035, N-(2-(5-chloro-1H-indol-3-yl)ethyl)-3-(3-methylbenzyl)benzamide] | 0.06
13 | O=C(NCCc1c[nH]c2ccc(Cl)cc12)c1cccc(CNCc2ccccc2)c1 [Cpd023, 3-((benzylamino)methyl)-N-(2-(5-chloro-1H-indol-3-yl)ethyl)benzamide] | 0.094
14 | O=C(NCCc1c[nH]c2ccc(Cl)cc12)c1cccc(Cc2cccc(C(F)(F)F)c2)c1 [Cpd044, N-(2-(5-chloro-1H-indol-3-yl)ethyl)-3-(3-(trifluoromethyl)benzyl)benzamide] | 0.055

Reference: patent US9266832B2, “Compounds for the treatment of neurodegenerative diseases” (Katholieke Universiteit Levun, priority 2010, dated 2016)
